# Results reported in paper PMC4127532 (Journal of Medicinal Chemistry, 2014).
# “Also recorded” adds a separate entry of the source.
# How the values were obtained:
# [1] = tested on: A/Victoria/3/75 (H3N2, M2 WT); assay: microbe, parasite or virus in culture; type: cell-based, influenza A
# [2] = molecular target: A/England/195/2009 (H1N1), M2/S31 (Influenza A virus, UniProt C3W5Z0, N31S); type: cell-based
# [3] = molecular target: S31N M2 transmembrane domain (residues 22–46) (Influenza A virus, UniProt P0DOF5, S31N); type: binding, influenza A (A/Udorn/307/72)
SMILES,EC50 ± SE [1],"EC50 ([1]; Influenza A virus, H3N2, MDCK)",block of inward proton currents (in words) [2],decrease of tilt angle of the entire TMD helix [3],helix tilt of S31N M2 TMD with drug [3]
"NC12CC3CC(CC(C3)C1)C2 [Compound 1, amantadine]",no detectable activity; also recorded: inactive,3000 ± 500 nM,well blocked,–,–
NC1C2CC3CC(C2)CC1C3 (stereo not shown) [Compound 3],–,–,well blocked,–,–
"CCCC1(N)C2CC3CC(C2)CC1C3 (stereo not shown) [Compound 6, 2-n-Propyltricyclo[3.3.1.1^3,7]decan-2-amine]",–,–,well blocked,3 °,~33 °
